Our source for the Emax and EC50 values is patent US8394843B2, “Substituted isoindoles as glucokinase activators” (Takeda California, Inc., priority 2006, dated 2013).

Bounds are passed on as bounds.

The experiment deals with T1, glucokinase (GK) (Homo sapiens, UniProt P35557).
T1 construct: I.D. No. 1 corresponds to residues 12-465 of glucokinase; made in house; host or cells: E. coli DH10b-T1r
T1 sequence (P35557 with tags, fused parts or gaps isoform P35557-2): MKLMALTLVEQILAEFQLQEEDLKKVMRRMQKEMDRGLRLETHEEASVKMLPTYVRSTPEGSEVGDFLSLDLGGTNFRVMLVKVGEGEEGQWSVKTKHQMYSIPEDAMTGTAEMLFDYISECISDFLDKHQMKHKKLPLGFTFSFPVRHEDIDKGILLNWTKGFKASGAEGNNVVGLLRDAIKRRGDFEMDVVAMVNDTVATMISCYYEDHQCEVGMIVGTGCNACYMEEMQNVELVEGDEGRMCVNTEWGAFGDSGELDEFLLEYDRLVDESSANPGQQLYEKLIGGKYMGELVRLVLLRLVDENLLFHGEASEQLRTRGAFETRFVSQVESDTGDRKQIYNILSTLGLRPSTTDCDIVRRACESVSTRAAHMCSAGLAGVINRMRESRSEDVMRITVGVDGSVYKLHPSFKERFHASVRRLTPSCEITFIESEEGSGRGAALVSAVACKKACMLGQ
Kind of experiment: enzymatic glucokinase activity assay (ATP consumption, KinaseGlo luminescence). The format is biochemical. The conditions noted are these: 5 mM Glucose, 5 μM ATP; for Emax: calculated maximal gain in GK enzyme activity at a saturating concentration of the compound, read-out: % ACTmax; for EC50: negative log of Kact, the concentration that displays 50% of the maximal increase in GK activity, 60 min at room temperature, read-out: pKact. An excerpt:
The activity of compounds as glucokinase activators may be assayed in vitro, in vivo or in a cell line. Provided below is an enzymatic glucokinase activity assay.
Purified glucokinase may be obtained as follows. DNA encoding residues 12-465 of the full-length sequence of the human enzyme may be amplified by PCR and cloned into the HindIII and EcoRI sites of pFLAG-CTC (Sigma). SEQ. I.D. No. 1 corresponds to residues 12-465 of glucokinase.
The expression of recombinant glucokinase protein may be carried out by transformation and growth of DH10b-T1r E. coli cells incorporating the (pFLAG-CTC) plasmid in LB media. Protein expression can be induced in this system by the addition of IPTG to the culture medium.
Recombinant protein may be isolated from cellular extracts by passage over Sepharose Q Fast Flow resin (Pharmacia). This partially purified GK extract may then be further purified by a second passage over Poros HQ10 (Applied Biosystems). The purity of GK may be determined on denaturing SDS-PAGE gel. Purified GK may then be concentrated to a final concentration of 20.0 mg/ml. After flash freezing in liquid nitrogen, the proteins can be stored at −78° C. in a buffer containing 25 mM TRIS-HCl pH 7.6, 50 mM NaCl, and 0.5 mM TCEP.
The activation properties of compounds for GK may be determined using a black 384-well-plate format under the following reaction conditions: 25 mM Hepes pH 7.2, 25 mM NaCl, 10 mM MgCl2, 0.01% Brij35, 1 mM DTT, 5 μM ATP, 5 mM Glucose 2% DMSO. The amount of ATP consumed may be determined quantitatively by addition of equal volume of luciferase reagent (luciferase+beetle luciferin—KinaseGlo Luminescent Kinase Assay kit from Promega). The luminescence intensity may be measured by using the Analyst HT from LJL Biosystems.
The assay reaction may be initiated as follows: 4 μl of substrate mixture (12.5 μM ATP and 12.5 mM Glucose) was added to each well of the plate, followed by the addition of 2 μl of activator (2 fold serial dilutions for 11 data points for each activator) containing 10% DMSO. 4 μL of 1.25 nM GK solution may be added to initiate the reaction. The reaction mixture may then be incubated at room temperature for 60 min, and quenched and developed by addition of 10 μL of luciferase reagent. Luminescence intensities of the resulting reaction mixtures may be measured after a 10 min incubation at room temperature. The luminescence intensity may be measured by using the Analyst HT from LJL Biosystems.
pKact and % ACTmax values may be calculated by non-linear curve fitting of the compound concentrations and luminescence intensities to a standard inhibition/activation equation. […] “pKact” is the negative log of the Kact value; i.e., −log10 [Kact]. % Actmax represents the calculated maximal gain in GK enzyme activity at a saturating concentration of the compound. pKact and % ACTmax values for select compounds of the present invention are given in Table 1.

For the compound `N=C1c2cc(F)ccc2CN1C(CC1CCCCC1)C(=O)Nc1nccs1` (stereo not drawn) [Example 12, 3-cyclohexyl-2-(6-fluoro-1-iminoisoindolin-2-yl)-N-(thiazol-2-yl)propanamide], the Emax was over 60% and the EC50 is 12.6 to 25.1 µM.

Take `CC(C)CC(C(=O)Nc1ccccn1)N1C(=O)c2ccccc2C1=O` (stereo not drawn) [Example 14, 2-(1,3-dioxoisoindolin-2-yl)-4-methyl-N-(pyridin-2-yl)pentanamide]: the Emax is over 60% and the EC50 was in the range of 12.6 to 25.1 µM.

In the case of `CC(C)CC(C(=O)Nc1nccs1)n1cc2ccc([N+](=O)[O-])cc2n1` (stereo not drawn) [Example 4, 4-methyl-2-(6-nitro-2H-indazol-2-yl)-N-(thiazol-2-yl)pentanamide], the Emax was under 50% and the EC50 was at most 10 µM.

Regarding `Cc1c2ccccc2nn1C(CC(C)C)C(=O)Nc1nccs1` (stereo not drawn) [Example 8, 4-methyl-2-(3-methyl-2H-indazol-2-yl)-N-(thiazol-2-yl)pentanamide], the Emax was under 50% and the EC50 was at most 10 µM.

With `CC(C)CC(C(=O)Nc1nccs1)n1cc2ccc(S(C)(=O)=O)cc2n1` (stereo not drawn) [Example 5, 4-methyl-2-(6-(methylsulfonyl)-2H-indazol-2-yl)-N-(thiazol-2-yl)pentanamide], the Emax was under 50% and the EC50 was 12.6 to 25.1 µM.

`CC(C)CC(C(=O)Nc1nccs1)n1cc2cc(F)ccc2n1` (stereo not drawn) [Example 3, 2-(5-fluoro-2H-indazol-2-yl)-4-methyl-N-(thiazol-2-yl)pentanamide]: the Emax is 50 to 60% and the EC50 was at least 31.6 µM.

As to `CC(C)CC(C(=O)Nc1nccs1)n1cc2ccccc2n1` (stereo not drawn) [Example 2, 2-(2H-indazol-2-yl)-4-methyl-N-(thiazol-2-yl)pentanamide], the Emax is over 60% and the EC50 is at least 31.6 µM.

Take `COc1ccc2nn(C(CC(C)C)C(=O)Nc3nccs3)cc2c1` (stereo not drawn) [Example 6, 2-(5-methoxy-2H-indazol-2-yl)-4-methyl-N-(thiazol-2-yl)pentanamide]: the Emax is 50 to 60% and the EC50 is at least 31.6 µM.

Regarding `CC(C)CC(C(=O)Nc1nccs1)N1C(=O)c2ccccc2C1=O` (stereo not drawn) [Example 13, 2-(1,3-dioxoisoindolin-2-yl)-4-methyl-N-(thiazol-2-yl)pentanamide], the Emax was over 60% and the EC50 was at most 10 µM.

Turning to `N=C1c2ccccc2CN1C(CC1CCCCC1)C(=O)Nc1nccs1` (stereo not drawn) [Example 11, 3-cyclohexyl-2-(1-iminoisoindolin-2-yl)-N-(thiazol-2-yl)propanamide], the Emax was over 60% and the EC50 is at most 10 µM.

On to `Cc1c2cc(F)ccc2nn1C(CC(C)C)C(=O)Nc1nccs1` (stereo not drawn) [Example 9, 2-(5-fluoro-3-methyl-2H-indazol-2-yl)-4-methyl-N-(thiazol-2-yl)pentanamide], for which the Emax is 50 to 60% and the EC50 was in the range of 12.6 to 25.1 µM.

`CC(C)CC(C(=O)Nc1nccs1)n1cc2cc(O)ccc2n1` (stereo not drawn) [Example 7, 2-(5-hydroxy-2H-indazol-2-yl)-4-methyl-N-(thiazol-2-yl)pentanamide]: the Emax was over 60% and the EC50 was at least 31.6 µM.
